Test results taken from paper PMC3259734 (ACS medicinal chemistry letters, 2011).
Values after ≈ are worked out from the molar mass of the structure shown. Values joined by “and” are separate entries in the source; they are usually repeats but may differ in a detail not shown here. Equal values may be shown once.

Key:
Cytotoxicity assays = type: cell-based
M. tuberculosis H37Rv [1] = assay: DHNA rescue of growth of treated M. tuberculosis; type: cell-based, Mycobacterium tuberculosis; settings: DHNA 100 μg/ml added to the media; compound at 2xMIC
MenB [2] = target: T1, MenB (Mycobacterium tuberculosis, UniProt P9WNP5); assay: biochemical; settings: for ability to inhibit MenB: analogues still able to undergo elimination
T1 sequence (P9WNP5 whole entry): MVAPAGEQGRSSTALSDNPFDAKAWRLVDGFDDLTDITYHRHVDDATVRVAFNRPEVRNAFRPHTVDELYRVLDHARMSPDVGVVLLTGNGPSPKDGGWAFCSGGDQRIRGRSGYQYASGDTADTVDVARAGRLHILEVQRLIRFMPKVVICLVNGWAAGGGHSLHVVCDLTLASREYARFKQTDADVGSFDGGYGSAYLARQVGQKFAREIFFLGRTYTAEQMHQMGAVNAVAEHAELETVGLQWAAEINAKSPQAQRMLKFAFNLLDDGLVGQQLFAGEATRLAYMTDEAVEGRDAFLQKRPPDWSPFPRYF

M. tuberculosis H37Rv [3] = assay: Antibacterial activity; type: cell-based, Mycobacterium tuberculosis; settings: in words
MenB [4] = target: T1, MenB; assay: Steady state kinetics of MenB inhibition; type: biochemical; settings: steady state kinetic methods
MenE = assay: Direct MenE inhibition assay; type: biochemical; settings: MenE 100 nM; data not shown
[5] = system: nonreplicating M. tuberculosis (NRP-MTB); settings: against NRP-MTB; cited from earlier work

COC(=O)/C=C/C(=O)c1ccc(F)cc1 [Compound 2b]
selectivity ratio (Cytotoxicity assays): > 20
rescue of growth by DHNA (M. tuberculosis H37Rv [1]): rescue the growth

O=C(O)/C=C/C(=O)c1ccc(Cl)cc1 [Compound 3a]
change of IC50 for MenB inhibition with CoA concentration (MenB [2]; data not shown): decreased as the concentration of CoA increased
antibacterial activity (M. tuberculosis H37Rv [3]): limited antibacterial activity

COC(=O)/C=C/C(=O)c1ccc(Cl)cc1 [Compound 3b, 4-Oxo-4-chlorophenylbutenoyl methyl ester]
selectivity ratio (Cytotoxicity assays): > 20
rescue of growth by DHNA (M. tuberculosis H37Rv [1]): rescue the growth

CC(C(=O)c1ccc(Cl)cc1)C(N[C@@H](C)c1ccccc1)C(=O)O (stereo partly drawn) [Compound 7S]
ability to inhibit MenB (MenB [2]): retained the ability to inhibit MenB

CC(C)(COP(=O)(O)OP(=O)(O)OC[C@H]1O[C@@H](n2cnc3c(N)ncnc32)[C@H](O)[C@@H]1OP(=O)(O)O)[C@@H](O)C(=O)NCCC(=O)NCCSC(CC(=O)c1ccc(Cl)cc1)C(=O)O (stereo partly drawn) [Compound 7]
mode of MenB inhibition (MenB [4]): noncompetitive (mixed)

[2H]C([2H])(C(=O)c1ccccc1Cl)C(N[C@@H](C)c1ccccc1)C(=O)O (stereo partly drawn) [Compound 8S]
ability to inhibit MenB (MenB [2]): retained the ability to inhibit MenB

CC(C)(COP(=O)(O)OP(=O)(O)OC[C@H]1O[C@@H](n2cnc3c(N)ncnc32)[C@H](O)[C@@H]1OP(=O)(O)O)[C@@H](O)C(=O)NCCC(=O)NCCSC(CC(=O)c1ccccc1Cl)C(=O)O (stereo partly drawn) [Compound 10]
mode of MenB inhibition (MenB [4]): noncompetitive (mixed)

CC(C)(COP(=O)(O)OP(=O)(O)OC[C@H]1O[C@@H](n2cnc3c(N)ncnc32)[C@H](O)[C@@H]1OP(=O)(O)O)[C@@H](O)C(=O)NCCC(=O)NCCSC(CC(=O)c1ccc(Cl)cc1Cl)C(=O)O (stereo partly drawn) [Compound 16]
IC50 (MenB [2]; IC50, 2-CoA-4-oxo-4-phenylbutanoic acids and analogues, Table 2): ~100 nM and 100 nM
mode of MenB inhibition (MenB [4]): noncompetitive (mixed)

CC(C)(COP(=O)(O)OP(=O)(O)OC[C@H]1O[C@@H](n2cnc3c(N)ncnc32)[C@H](O)[C@@H]1OP(=O)(O)O)[C@@H](O)C(=O)NCCC(=O)NCCSCCC(=O)c1ccc(Cl)cc1Cl [Compound 18]
concentration up to which MenB was not (significantly) inhibited (MenB [2]): > 400 µM

CC(NC(CC(=O)c1ccc(F)cc1)C(=O)O)c1ccccc1 (stereo not drawn) [Compound 1548L21]
concentration up to which MenE was not inhibited (MenE): > 300 µM

CO[C@H]1/C=C/O[C@@]2(C)Oc3c(C)c(O)c4c(O)c(c(/C=N/N5CCN(C)CC5)c(O)c4c3C2=O)NC(=O)/C(C)=C\C=C\[C@H](C)[C@H](O)[C@@H](C)[C@@H](O)[C@@H](C)[C@H](OC(C)=O)[C@@H]1C [rifampicin]
MIC [5]: 0.4 µg/mL (≈ 0.486 µM)
